Data: patent publication EP0478964A1, “Pyrazoloquinoline derivatives” (SHIONOGI SEIYAKU KABUSHIKI KAISHA, priority 1990, dated 1992)
Each block holds one compound with its values, some of them ahead of it.

Tests used:
BDZ receptor = BDZ receptor binding assay (displacement of tritium labeled diazepam); conditions: cerebral cortex of Wistar rats; 2nM tritium labeled diazepam; 0 °C for 60 minutes; Ki calculated from IC50
Description: This test was carried out according to the modified method of Möhler & Okada, Science, 198, 849-851 (1977).
The BDZ receptor preparation was provided from the cerebral cortex of Wistar rats (male, 11 to 13 week-old). Inhibitory activities of the test compound were determined by the specific binding strengh of tritium labeled diazepam to the receptor. 2nM tritium labeled diazepam and an aqeuous solution of the test compound at 5 or 6 different concentrations were incubated at 0 °C for 60 minutes. The 50 % inhibitory concentration (IC₅₀) was measured by the concentration-response curve.
The inhibitory constant (Ki) was calculated according to the following equation, in which Kd is the dissociation constant of the tritium labeled diazepam and L is the concentration of the labeled ligand. [formula]

[1] = tested on: convulsion induced by pentylenetetrazol; test: Test of potentiating convulsion induced by pentylenetetrazol (inverse agonist activity); type: in vivo, mice; conditions: Mus musculus, iv, read-out: ED₅₀
Description: (§1) Inverse agonist activity was evaluated by the following procedure. A certain amount of a test compound was administered intravenously to 8-16 male mice per group, followed by pentylenetetrazol at a subcuataneous dose of 90 mg/kg. The dose (ED₅₀) at which 50% of mice stayed alive, was calculated by the Probit method.

[2] = tested on: convulsion induced by pentylenetetrazol; test: Test of suppressing convulsion induced by pentylenetetrazol (agonist activity); type: in vivo; conditions: Mus musculus; male mice; test compound intravenously; pentylenetetrazol subcutaneous 125 mg/kg; dose at which 50% of mice was alive; Probit method; read-out: ED₅₀
Description: as §1, with “Agonist” for “Inverse agonist”, “125” for “90”, “was” for “stayed”

Structure (SMILES): Cc1ccc2[nH]cc3c(=O)n(C4=CCCC4)nc-3c2c1 [I-36]
Ki (BDZ receptor): 480 pM
ED50 [1]: 0.4 mg/kg

Structure (SMILES): O=c1c2c[nH]c3ccccc3c-2nn1C1=CCOC1 [I-38]
Ki (BDZ receptor): 590 pM

Ki (BDZ receptor): 520 pM
Structure (SMILES): O=c1c2c[nH]c3ccccc3c-2nn1C1=CCCC1 [I-1, 2-(Cyclopenten-1-yl)-2,5-dihydro-3H-pyrazolo[4,3-c]quinolin-3-one]
ED50 ([1]; male mice, test compound intravenously, pentylenetetrazol subcutaneous 90 mg/kg, dose at which 50% of mice stayed alive, Probit method): 1.07 mg/kg

Structure (SMILES): CC1CC=C(n2nc3c4ccccc4[nH]cc-3c2=O)CC1 (stereo not drawn) [I-25]
Ki (BDZ receptor): 3100 pM
ED50 [2]: 0.69 mg/kg

Ki (BDZ receptor): 690 pM
Structure (SMILES): COc1ccc2[nH]cc3c(=O)n(C4=CCOC4)nc-3c2c1 [I-11, 8-Methoxy-2-(2,5-dihydrofuran-3-yl)-2,5-dihydro-3H-pyrazolo[4,3-c]quinolin-3-one]

Structure (SMILES): CC(C)/C=C/n1nc2c3ccccc3[nH]cc-2c1=O [I-21]
Ki (BDZ receptor): 980 pM
ED50 [2]: 0.72 mg/kg

Structure (SMILES): COc1ccc2c3nn(C4=CCCC4)c(=O)c-3c[nH]c2c1 [I-34]
Ki (BDZ receptor): 2100 pM

Structure (SMILES): O=c1c2c[nH]c3ccccc3c-2nn1C1=CCCCC1 [I-16]
Ki (BDZ receptor): 1500 pM

Structure (SMILES): CC1(C)C=C(n2nc3c4ccccc4[nH]cc-3c2=O)CO1 [I-39]
Ki (BDZ receptor): 290 pM
ED50 [2]: 0.19 mg/kg

Structure (SMILES): O=c1c2c[nH]c3ccc(F)cc3c-2nn1C1=CCCC1 [I-31]
Ki (BDZ receptor): 480 pM
ED50 [1]: 0.81 mg/kg

Structure (SMILES): C/C=C/n1nc2c3ccccc3[nH]cc-2c1=O [I-24]
Ki (BDZ receptor): 1000 pM
ED50 [1]: 0.23 mg/kg
